# Reference: patent US10738062B2, “Chromane-substituted tetracyclic compounds and uses thereof for the treatment of viral diseases” (Merck Sharp & Dohme Corp., priority 2016, dated 2020)
# Read-outs that look alike come from different tables or passages of the source.
# How the values were obtained:
# Design in all cases: species or system Hepatitis C virus
# HCV replicon 1A = experiment: Cell-based HCV replicon assay (Replicon Assay A), replicon 1A; settings: replicon RNA by real time PCR, day 3
# Experimental: (§1) To measure cell-based anti-HCV activity of compounds of the present invention, two complimentary assays were employed using various replicons. In the first assay (“Replicon Assay A”), replicon cells were seeded at 2000 cells/well in 384-well 384-well flat bottom tissue culture treated clear bottom plate (Corning 3707) in the presence of the test compound. Various concentrations of test compound, typically in 10 serial dilutions, were added to the assay mixture, with the starting concentration ranging from 333.3 nM to 1.667 nM. The final concentration of DMSO was 0.5%. Fetal bovine serum was 5%, in the assay media. Cells were harvested on day 3 by removing media and washing the cells with a suitable wash buffer. The cells were lysed with the addition of 1× Qiagen lysis buffer (Cat #1062731). The replicon RNA level was measured using real time PCR (TaqMan® EZ RT-PCR, Applied Biosystems 403028) with the following primers and probes: […]
# (§2) Cyclophilin RNA was used as endogenous control and was amplified in the same reaction as NS5B (multiplex PCR). The real-time RT-PCR reactions were run on ABI PRISM 7900HT Sequence Detection System using the following program: 50° C. for 2 minutes, 60° C. for 30 minutes, 95° C. for 5 minutes, 40 cycles of 94° C. for 20 sec, 55° C. for 1 minutes.
# (§3) The amount of HCV replicon RNA per cell was quantified using a linear regression curve for a known nanogram (ng) amount of HCV replicon total RNA. This was established by plotting the Cycle Threshold values (Ct) from the Neo probe and primer set versus the log (ng) for each HCV replicon total RNA standard. The amount of HCV RNA for each replicon sample was calculated by taking the sample's Ct value, minus the line intercept, divided by the slope of the line. Similarly, the amount of Cyclophilin mRNA per cell was also quantified using a linear regression curve for a known nanogram (ng) amount of HCV replicon total RNA. Again, this was established by plotting the Cycle Threshold values (Ct) from the Cyclophilin probe and primer set versus the log (ng) for each HCV replicon total RNA standard.
# (§4) The real-time RT-PCR reactions were run on ABI PRISM 7900HT or Viia7 Sequence Detection System using the following program: 48° C. for 30 minutes, 95° C. for 10 minutes, 40 cycles of 95° C. for 15 sec, 60° C. for 1 minutes. The 50% effective concentration (EC50) was the drug concentration necessary to achieve an increase in the cycle threshold (CT) of 1 over the projected baseline CT.
# (§5) Data was obtained for various compounds of the present invention using the methods described in the Example above, and is presented in the table immediately below. EC50 data for replicons 1A, 1AY93H and 2B were obtained using Replicon Assay A and EC50 data for replicon 1B was obtained using Replicon Assay B.
# HCV replicon 2B = experiment: Cell-based HCV replicon assay (Replicon Assay A), replicon 2B; settings: replicon RNA by real time PCR, day 3
# Experimental: as §1, §2, §3, §4, §5
# HCV replicon 1A Y93H = experiment: Cell-based HCV replicon assay (Replicon Assay A), replicon 1AY93H; settings: read-out: EC50 replicon 1A Y93H; Replicon Assay A; replicon RNA by real time PCR, day 3
# Experimental: as §1, §2, §3, §4, §5
# [1] = read-out: EC50 replicon 2B, Replicon Assay A
# [2] = Hepatitis C virus, 72 h, read-out: EC50 replicon 2B, Replicon Assay A
Structure (SMILES),"EC50 (HCV replicon 1A; Hepatitis C virus, 72 h) [nM]",EC50 (HCV replicon 2B; [1]) [nM],EC50 (HCV replicon 1A Y93H) [nM],EC50 (HCV replicon 1A) [nM],EC50 (HCV replicon 2B; [2]) [nM]
"COC(=O)NC(C(=O)N1CCC[C@H]1c1ncc(-c2ccc3c(c2)cc2n3C(c3ccc4c(c3)OCCC4)Oc3cc(-c4cnc([C@@H]5CCCN5C(=O)[C@@H](NC(=O)OC)C(C)C)[nH]4)cc(F)c3-2)[nH]1)C1C[C@@H](C)O[C@@H](C)C1 (single isomer, unassigned) [Compound 75]",0.0018,0.296,1.27,,
"COC(=O)NC(C(=O)N1CCC[C@H]1c1ncc(-c2ccc3c(c2)cc2n3C(c3ccc4c(c3)CCCO4)Oc3cc(-c4cnc([C@@H]5CCCN5C(=O)[C@@H](NC(=O)OC)C(C)C)[nH]4)cc(F)c3-2)[nH]1)C1C[C@@H](C)O[C@@H](C)C1 (single isomer, unassigned) [Compound 74]",,0.234,0.091,0.0025,
"COC(=O)N[C@H](C(=O)N1CCC[C@H]1c1ncc(-c2cc(F)c3c(c2)OC(c2ccc4c(c2)OCCC4(F)F)n2c-3cc3cc(-c4cnc([C@@H]5CCCN5C(=O)[C@@H](NC(=O)OC)C(C)C)[nH]4)ccc32)[nH]1)C(C)C (single isomer, unassigned) [Compound 19]",0.0014,0.767,4.2,,
"COC(=O)N[C@H](C(=O)N1CCC[C@H]1c1ncc(-c2cc(F)c3c(c2)OC(c2ccc4c(c2)CCC(C)(C)O4)n2c-3cc3cc(-c4cnc([C@@H]5CCCN5C(=O)[C@@H](NC(=O)OC)C(C)C)[nH]4)ccc32)[nH]1)C(C)C (single isomer, unassigned) [Compound 21]",0.0015,3.56,7.11,,
"COC(=O)N[C@H](C(=O)N1CCC[C@H]1c1ncc(-c2cc(F)c3c(c2)OC(c2ccc4c(c2)OCCC4)n2c-3cc3cc(-c4cnc([C@@H]5C[C@@H](F)CN5C(=O)[C@@H](c5ccccc5)N5CCC5)[nH]4)ccc32)[nH]1)C(C)C (single isomer, unassigned) [Compound 37]",,,15.2,0.187,
"COC(=O)NC(C(=O)N1CCC[C@H]1c1ncc(-c2ccc3c(c2)cc2n3C(c3ccc4c(c3)OCCC4)Oc3cc(-c4cnc([C@@H]5CCCN5C(=O)[C@@H](NC(=O)OC)C(C)C)[nH]4)cc(F)c3-2)[nH]1)C(C)(C)F (single isomer, unassigned) [Compound 41]",,4.13,,,
"COC(=O)N[C@H](C(=O)N1CCC[C@H]1c1ncc(-c2cc(F)c3c(c2)OC(c2ccc4c(c2)CCCO4)n2c-3cc3cc(-c4cnc([C@@H]5CCCN5C(=O)[C@@H](NC(=O)OC)C(C)C)[nH]4)ccc32)[nH]1)C(C)C (single isomer, unassigned) [Compound 24]",,1.77,0.282,0.0016,
"COC(=O)NC(C(=O)N1CCC[C@H]1c1ncc(-c2ccc3c(c2)cc2n3C(c3ccc4c(c3)OCCC4)Oc3cc(-c4cnc([C@@H]5CCCN5C(=O)[C@@H](NC(=O)OC)C(C)C)[nH]4)cc(F)c3-2)[nH]1)C(C)(C)F (single isomer, unassigned) [Compound 44]",,4.91,,,
"COC(=O)N[C@H](C(=O)N1CCC[C@H]1c1ncc(-c2cc(F)c3c(c2)OC(c2ccc4c(c2)OC(C)(C)CC4)n2c-3cc3cc(-c4cnc([C@@H]5CCCN5C(=O)[C@@H](NC(=O)OC)C(C)C)[nH]4)ccc32)[nH]1)C(C)C (single isomer, unassigned) [Compound 18]",0.0022,0.252,0.052,,
"COC(=O)N[C@H](C(=O)N1CCC[C@H]1c1ncc(-c2cc(F)c3c(c2)OC(c2ccc4c(c2)CCCO4)n2c-3cc3cc(-c4cnc([C@@H]5C[C@H]6C[C@H]6N5C(=O)[C@@H](NC(=O)OC)C(C)C)[nH]4)ccc32)[nH]1)C(C)C (single isomer, unassigned) [Compound 45]",,,0.12,0.001,5.28
"COC(=O)N[C@H](C(=O)N1CCC[C@H]1c1ncc(-c2cc(F)c3c(c2)OC(c2ccc4c(c2)OCCC4)n2c-3cc3cc(-c4cnc([C@@H]5C[C@H]6C[C@H]6N5C(=O)[C@@H](c5ccccc5)N5CCC5)[nH]4)ccc32)[nH]1)C1CCOCC1 (single isomer, unassigned) [Compound 71]",,,,,5.13
"COC(=O)N[C@H](C(=O)N1CCC[C@H]1c1ncc(-c2cc(F)c3c(c2)OC(c2ccc4c(c2)OC(C)(C)CC4)n2c-3cc3cc(-c4cnc([C@@H]5CCCN5C(=O)[C@@H](NC(=O)OC)C(C)C)[nH]4)ccc32)[nH]1)C(C)C (single isomer, unassigned) [Compound 17]",,5.21,11.8,,
"CCN(CC)[C@@H](C(=O)N1[C@@H]2C[C@@H]2C[C@H]1c1ncc(-c2ccc3c(c2)cc2n3C(c3ccc4c(c3)OCCC4)Oc3cc(-c4cnc([C@@H]5CCCN5C(=O)[C@@H](NC(=O)OC)C5CCOCC5)[nH]4)cc(F)c3-2)[nH]1)c1ccccc1 (single isomer, unassigned) [Compound 53]",,0.379,,,
"COC(=O)N[C@H](C(=O)N1CCC[C@H]1c1ncc(-c2cc(F)c3c(c2)OC(c2ccc4c(c2)OC(C)(C)C4)n2c-3cc3cc(-c4cnc([C@@H]5CCCN5C(=O)[C@@H](NC(=O)OC)C(C)C)[nH]4)ccc32)[nH]1)C(C)C (single isomer, unassigned) [Compound 27]",0.0014,1.48,1.08,,
"COC(=O)N[C@H](C(=O)N1CCC[C@H]1c1ncc(-c2cc(F)c3c(c2)OC(c2ccc4c(c2)OCCC4)n2c-3c(F)c3cc(-c4cnc([C@@H]5CCCN5C(=O)[C@@H](NC(=O)OC)C5CCOCC5)[nH]4)ccc32)[nH]1)C(C)C (single isomer, unassigned) [Compound 91]",0.0011,0.123,0.893,,
"COC(=O)NC(C(=O)N1CCC[C@H]1c1ncc(-c2ccc3c(c2)cc2n3C(c3ccc4c(c3)OC(C)CC4)Oc3cc(-c4cnc([C@@H]5CCCN5C(=O)[C@@H](NC(=O)OC)C(C)C)[nH]4)cc(F)c3-2)[nH]1)C1C[C@@H](C)O[C@@H](C)C1 (single isomer, unassigned) [Compound 57]",0.002,0.33,0.685,,
"COC(=O)N[C@H](C(=O)N1CCC[C@H]1c1ncc(-c2cc(F)c3c(c2)OC(c2ccc4c(c2)CCC(C)(C)O4)n2c-3cc3cc(-c4cnc([C@@H]5CCCN5C(=O)[C@@H](NC(=O)OC)C(C)C)[nH]4)ccc32)[nH]1)C(C)C (single isomer, unassigned) [Compound 22]",,0.93,0.162,0.0027,
"COC(=O)NC(C(=O)N1CCC[C@H]1c1ncc(-c2ccc3c(c2)cc2n3C(c3ccc4c(c3)OCCC4)Oc3cc(-c4cnc([C@@H]5CCCN5C(=O)[C@@H](NC(=O)OC)C(C)C)[nH]4)cc(C)c3-2)[nH]1)C1C[C@@H](C)O[C@@H](C)C1 (single isomer, unassigned) [Compound 85]",0.0027,0.07,0.575,,
"COC(=O)NC(C(=O)N1[C@@H]2C[C@@H]2C[C@H]1c1ncc(-c2ccc3c(c2)cc2n3C(c3ccc4c(c3)CCCO4)Oc3cc(-c4cnc([C@@H]5CCCN5C(=O)[C@@H](NC(=O)OC)C(C)C)[nH]4)cc(F)c3-2)[nH]1)C1C[C@@H](C)O[C@@H](C)C1 (single isomer, unassigned) [Compound 66]",,2.35,0.172,0.0034,
"COC(=O)N[C@H](C(=O)N1CCC[C@H]1c1ncc(-c2cc(F)c3c(c2)OC(c2ccc4c(c2)OCCC4)n2c-3cc3cc(-c4cnc([C@@H]5C[C@H]6C[C@H]6N5C(=O)[C@@H](c5ccccc5)N5CCC5)[nH]4)ccc32)[nH]1)C1CCOCC1 (single isomer, unassigned) [Compound 72]",,3.3,,,
"COC(=O)N[C@H](C(=O)N1CCC[C@H]1c1ncc(-c2cc(F)c3c(c2)OC(c2ccc4c(c2)OCC4)n2c-3cc3cc(-c4cnc([C@@H]5C[C@H]6C[C@H]6N5C(=O)[C@@H](NC(=O)OC)C(C)C)[nH]4)ccc32)[nH]1)C(C)C (single isomer, unassigned) [Compound 47]",,4.32,4.52,,
"COC(=O)N[C@H](C(=O)N1CCC[C@H]1c1ncc(-c2cc(F)c3c(c2)OC(c2ccc4c(c2)OCCC4)n2c-3cc3cc(-c4cnc([C@@H]5C[C@@H](F)CN5C(=O)[C@@H](c5ccccc5)N5CCC5)[nH]4)ccc32)[nH]1)C(C)C (single isomer, unassigned) [Compound 38]",,,6.65,0.0052,
